66 compounds from patent US8309552B2, “Immunomodulating heterocyclic compounds” (Medigene AG, priority 2003, dated 2012) can be followed below.

The structures appear in SMILES notation.

The first test deals with T1, CD80-CD28 interaction (Homo sapiens, UniProt P33681).
T1 sequence (P33681 35-242 limits assumed): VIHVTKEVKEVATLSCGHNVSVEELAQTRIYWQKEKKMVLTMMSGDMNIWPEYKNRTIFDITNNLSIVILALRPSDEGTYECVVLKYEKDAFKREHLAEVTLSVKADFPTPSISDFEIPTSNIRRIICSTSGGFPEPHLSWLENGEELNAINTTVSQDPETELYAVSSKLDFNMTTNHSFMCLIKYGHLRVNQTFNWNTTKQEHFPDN
Nature of the test: Homogenous Time Resolved Fluorescence (HTRF) assay, cell free. It is filed as binding. The settings on record: cell free HTRF assay; concentration series 100 μM-1.7 nM; 4 hours at room temperature; read-out: Activity (EC50 in the HTRF assay). The gist of the method:
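Europium and APC labels were linked through antibodies to CD28 and CD80 fusion proteins. Compounds were tested at 100 μM-1.7 nM for 4 h at room temperature in 50 mM Tris-HCl, 150 mM NaCl pH7.8, 0.1% BSA. Emission read at 665 and 615 nm (excitation 340 nm); non-specific signal measured with C215 Fab in place of CD80; EC50 reported in bands.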
Usually EC50 stands for the concentration needed to bring the measured effect to its halfway point. With `CCC(CC)CNC(=O)Nc1ccc(-n2[nH]c3c(nnc4ccccc43)c2=O)cc1` [Example 221], the concentration for a half-maximal effect (EC50) was greater than 10 µM.

On to `CC(=O)NCCCCNC(=O)Nc1ccc(-n2[nH]c3c(nnc4ccccc43)c2=O)cc1` [Example 222], for which the EC50 was less than 1 µM.

On to `CC(C)(C)OC(=O)CCNC(=O)Nc1ccc(-n2[nH]c3c(nnc4ccccc43)c2=O)cc1` [Example 223], for which the EC50 is 1 to 10 µM.

As for `O=C(NCCN1CCC(Cc2ccccc2)CC1)Nc1ccc(-n2[nH]c3c(nnc4ccccc43)c2=O)cc1` [Example 224], the 50% effective concentration (EC50) is less than 1 µM.

Regarding `COc1ccc(OCCNC(=O)Nc2ccc(-n3[nH]c4c(nnc5ccccc54)c3=O)cc2)cc1` [Example 225], the EC50 is greater than 10 µM.

Turning to `O=C(Nc1ccc(-n2[nH]c3c(nnc4ccccc43)c2=O)cc1)NC1Cc2ccccc2C1` [Example 226], the EC50 was greater than 10 µM.

As for `O=C(NCCSc1cc(C(F)(F)F)nc2ccccc12)Nc1ccc(-n2[nH]c3c(nnc4ccccc43)c2=O)cc1` [Example 227], the EC50 is greater than 10 µM.

Consider `O=C(NCCCCN1CCCC1)Nc1ccc(-n2[nH]c3c(nnc4ccccc43)c2=O)cc1` [Example 228], for which the EC50 was less than 1 µM.

For `O=C(NCCCN1CCCC1)Nc1ccc(-n2[nH]c3c(nnc4ccccc43)c2=O)cc1` [Example 229], the EC50 is less than 1 µM.

For the compound `CN(C)CCCNC(=O)c1ccc(-n2[nH]c3c(nnc4c(F)cccc43)c2=O)cc1` [Example 232], the concentration giving a half-maximal response (EC50) is less than 1 µM.

As for `CN1C(C)(C)CC(NC(=O)c2ccc(-n3[nH]c4c(nnc5c(F)cccc54)c3=O)cc2)CC1(C)C` [Example 234], the EC50 is less than 1 µM.

In the case of `COc1ccc(CNC(=O)c2ccc(-n3[nH]c4c(nnc5ccccc54)c3=O)cc2)c(OC)c1` [Example 236], the EC50 was greater than 10 µM.

Regarding `CN(C)c1ccc(CNC(=O)c2ccc(-n3[nH]c4c(nnc5ccccc54)c3=O)cc2)cc1` [Example 237], the 50% effective concentration (EC50) was less than 1 µM.

With `O=C(NCC1CCCO1)c1ccc(-n2[nH]c3c(nnc4ccccc43)c2=O)cc1` (stereo not drawn) [Example 238], the half-maximal effective concentration (EC50) lay in the range of 1 to 10 µM.

Turning to `O=C(NC1CCC1)c1ccc(-n2[nH]c3c(nnc4ccccc43)c2=O)cc1` [Example 239], the EC50 was in the range of 1 to 10 µM.

For `COc1ccc(CNC(=O)c2ccc(-n3[nH]c4c(nnc5ccccc54)c3=O)cc2)cc1` [Example 240], the 50% effective concentration (EC50) is less than 1 µM.

As for `CCCCNC(=O)c1ccc(-n2[nH]c3c(nnc4ccccc43)c2=O)cc1` [Example 241], the EC50 lay in the range of 1 to 10 µM.

As to `O=C(NCc1ccco1)c1ccc(-n2[nH]c3c(nnc4ccccc43)c2=O)cc1` [Example 242], the EC50 was less than 1 µM.

In the case of `CC(C)NC(=O)c1ccc(-n2[nH]c3c(nnc4ccccc43)c2=O)cc1` [Example 243], the EC50 was less than 1 µM.

With `O=C(NCC1CCCCC1)c1ccc(-n2[nH]c3c(nnc4ccccc43)c2=O)cc1` [Example 244], the EC50 lay within 1 to 10 µM.

With `CCCCCCCNC(=O)c1ccc(-n2[nH]c3c(nnc4ccccc43)c2=O)cc1` [Example 245], the EC50 is 1 to 10 µM.

As for `C=CCNC(=O)c1ccc(-n2[nH]c3c(nnc4ccccc43)c2=O)cc1` [Example 246], the EC50 was less than 1 µM.

For `COCCCNC(=O)c1ccc(-n2[nH]c3c(nnc4ccccc43)c2=O)cc1` [Example 247], the EC50 was less than 1 µM.

As for `O=C(NCc1cccc(C(F)(F)F)c1)c1ccc(-n2[nH]c3c(nnc4ccccc43)c2=O)cc1` [Example 248], the EC50 was greater than 10 µM.

In the case of `O=C(NCc1cccc(F)c1)c1ccc(-n2[nH]c3c(nnc4ccccc43)c2=O)cc1` [Example 250], the 50% effective concentration (EC50) is less than 1 µM.

The same test, now with this note: cell-free HTRF, compound concentration series 100 μM-1.7 nM, 4 hours at room temperature; read-out: Activity (EC50 in the HTRF assay).
As for `CSCCNC(=O)Nc1ccc(-n2[nH]c3c(nnc4ccccc43)c2=O)cc1` [Example 178], the EC50 was in the range of 1 to 10 µM.

Take `O=C(NCCCN1CCOCC1)Nc1ccc(-n2[nH]c3c(nnc4ccccc43)c2=O)cc1` [Example 179]: the EC50 was less than 1 µM.

Consider `O=C(NCCSCc1c(F)cccc1Cl)Nc1ccc(-n2[nH]c3c(nnc4ccccc43)c2=O)cc1` [Example 180], for which the half-maximal effective concentration (EC50) was greater than 10 µM.

Take `CCCCCC(C)NC(=O)Nc1ccc(-n2[nH]c3c(nnc4ccccc43)c2=O)cc1` (stereo not drawn) [Example 181]: the EC50 was greater than 10 µM.

Turning to `CN1CCC(NC(=O)Nc2ccc(-n3[nH]c4c(nnc5ccccc54)c3=O)cc2)CC1` [Example 183], the 50% effective concentration (EC50) is less than 1 µM.

As to `O=C(NCCc1ccncc1)Nc1ccc(-n2[nH]c3c(nnc4ccccc43)c2=O)cc1` [Example 184], the EC50 lay in the range of 1 to 10 µM.

Consider `CN(C)CC(C)(C)CNC(=O)Nc1ccc(-n2[nH]c3c(nnc4ccccc43)c2=O)cc1` [Example 185], for which the 50% effective concentration (EC50) is less than 1 µM.

In the case of `CC1CCCCN1CCCNC(=O)Nc1ccc(-n2[nH]c3c(nnc4ccccc43)c2=O)cc1` (stereo not drawn) [Example 186], the 50% effective concentration (EC50) is less than 1 µM.

As to `CCC(CC)NC(=O)Nc1ccc(-n2[nH]c3c(nnc4ccccc43)c2=O)cc1` [Example 187], the EC50 was in the range of 1 to 10 µM.

Take `O=C(NCCCCc1ccccc1)Nc1ccc(-n2[nH]c3c(nnc4ccccc43)c2=O)cc1` [Example 188]: the EC50 was greater than 10 µM.

For `CCOC(=O)CCC(NC(=O)Nc1ccc(-n2[nH]c3c(nnc4ccccc43)c2=O)cc1)C(=O)OCC` (stereo not drawn) [Example 189], the half-maximal effective concentration (EC50) fell in the range of 1 to 10 µM.

On to `O=C(Nc1ccc(-n2[nH]c3c(nnc4ccccc43)c2=O)cc1)NC1CCC(O)CC1` (stereo not drawn) [Example 190], for which the concentration for a half-maximal effect (EC50) lay in the range of 1 to 10 µM.

As for `CCOC(=O)CCCNC(=O)Nc1ccc(-n2[nH]c3c(nnc4ccccc43)c2=O)cc1` [Example 192], the EC50 was greater than 10 µM.

Turning to `O=C(NCCNCc1ccccc1)Nc1ccc(-n2[nH]c3c(nnc4ccccc43)c2=O)cc1` [Example 193], the concentration giving a half-maximal response (EC50) is less than 1 µM.

On to `CC(NC(=O)Nc1ccc(-n2[nH]c3c(nnc4ccccc43)c2=O)cc1)C1CCCCC1` (stereo not drawn) [Example 194], for which the EC50 was greater than 10 µM.

Take `O=C(Nc1ccc(-n2[nH]c3c(nnc4ccccc43)c2=O)cc1)NC1CCOC1=O` (stereo not drawn) [Example 195]: the EC50 was 1 to 10 µM.

With `O=C(NCCc1ccccn1)Nc1ccc(-n2[nH]c3c(nnc4ccccc43)c2=O)cc1` [Example 196], the EC50 lay within 1 to 10 µM.

Consider `O=C(Nc1ccc(-n2[nH]c3c(nnc4ccccc43)c2=O)cc1)NC1CCCN(Cc2ccccc2)C1` (stereo not drawn) [Example 197], for which the EC50 lay in the range of 1 to 10 µM.

Take `O=C(NCC1CCCO1)Nc1ccc(-n2[nH]c3c(nnc4ccccc43)c2=O)cc1` (stereo not drawn) [Example 198]: the EC50 fell in the range of 1 to 10 µM.

For `O=C(Nc1ccc(-n2[nH]c3c(nnc4ccccc43)c2=O)cc1)NC1CC2CCC1C2` (stereo not drawn) [Example 199], the 50% effective concentration (EC50) is greater than 10 µM.

On to `O=C(NCCSCc1ccccc1)Nc1ccc(-n2[nH]c3c(nnc4ccccc43)c2=O)cc1` [Example 200], for which the EC50 is greater than 10 µM.

For `CC1C(NC(=O)Nc2ccc(-n3[nH]c4c(nnc5ccccc54)c3=O)cc2)CC2CC1C2(C)C` (stereo not drawn) [Example 201], the EC50 was greater than 10 µM.

`CC1C(NC(=O)Nc2ccc(-n3[nH]c4c(nnc5ccccc54)c3=O)cc2)CC2CC1C2(C)C` (stereo not drawn) [Example 202]: the concentration giving a half-maximal response (EC50) was greater than 10 µM.

`CCCC(C)NC(=O)Nc1ccc(-n2[nH]c3c(nnc4ccccc43)c2=O)cc1` (stereo not drawn) [Example 203]: the EC50 is greater than 10 µM.

Take `O=C(NCC1CCCCCC1)Nc1ccc(-n2[nH]c3c(nnc4ccccc43)c2=O)cc1` [Example 204]: the EC50 was greater than 10 µM.

On to `CC(C)(C)OC(=O)CNC(=O)Nc1ccc(-n2[nH]c3c(nnc4ccccc43)c2=O)cc1` [Example 205], for which the EC50 was greater than 10 µM.

`CCCCN(CCCC)CCNC(=O)Nc1ccc(-n2[nH]c3c(nnc4ccccc43)c2=O)cc1` [Example 206]: the half-maximal effective concentration (EC50) was less than 1 µM.

Regarding `CCCCC(C)NC(=O)Nc1ccc(-n2[nH]c3c(nnc4ccccc43)c2=O)cc1` (stereo not drawn) [Example 207], the EC50 fell in the range of 1 to 10 µM.

In the case of `O=C(NCCOc1ccccc1)Nc1ccc(-n2[nH]c3c(nnc4ccccc43)c2=O)cc1` [Example 208], the concentration giving a half-maximal response (EC50) fell in the range of 1 to 10 µM.

Take `C=C(C)C(=O)OCCNC(=O)Nc1ccc(-n2[nH]c3c(nnc4ccccc43)c2=O)cc1` [Example 209]: the EC50 was greater than 10 µM.

On to `COCC(C)NC(=O)Nc1ccc(-n2[nH]c3c(nnc4ccccc43)c2=O)cc1` (stereo not drawn) [Example 210], for which the 50% effective concentration (EC50) is less than 1 µM.

Consider `O=C(Nc1ccc(-n2[nH]c3c(nnc4ccccc43)c2=O)cc1)NC1CCCC1OCc1ccccc1` (stereo not drawn) [Example 211], for which the EC50 is greater than 10 µM.

For `O=C(Nc1ccc(-n2[nH]c3c(nnc4ccccc43)c2=O)cc1)NC1CCCCC1OCc1ccccc1` (stereo not drawn) [Example 212], the 50% effective concentration (EC50) is greater than 10 µM.

With `CC(C)(C)OC(=O)NCCCNC(=O)Nc1ccc(-n2[nH]c3c(nnc4ccccc43)c2=O)cc1` [Example 213], the concentration for a half-maximal effect (EC50) fell in the range of 1 to 10 µM.

Take `O=C(Nc1ccc(-n2[nH]c3c(nnc4ccccc43)c2=O)cc1)NC1CCN(Cc2ccccc2)C1` (stereo not drawn) [Example 214]: the EC50 was less than 1 µM.

In the case of `CCCCOC(=O)CNC(=O)Nc1ccc(-n2[nH]c3c(nnc4ccccc43)c2=O)cc1` [Example 215], the half-maximal effective concentration (EC50) is greater than 10 µM.

As to `CCCCCOC(=O)CNC(=O)Nc1ccc(-n2[nH]c3c(nnc4ccccc43)c2=O)cc1` [Example 216], the EC50 was greater than 10 µM.

Take `O=C(NCCc1cccnc1)Nc1ccc(-n2[nH]c3c(nnc4ccccc43)c2=O)cc1` [Example 217]: the 50% effective concentration (EC50) lay within 1 to 10 µM.

With `CC(C)CCC(C)NC(=O)Nc1ccc(-n2[nH]c3c(nnc4ccccc43)c2=O)cc1` (stereo not drawn) [Example 218], the EC50 was greater than 10 µM.

On to `O=C(NCCCCCNC(=O)OCc1ccccc1)Nc1ccc(-n2[nH]c3c(nnc4ccccc43)c2=O)cc1` [Example 219], for which the EC50 fell in the range of 1 to 10 µM.

Take `CC(C)(C)OC(=O)NCCCCNC(=O)Nc1ccc(-n2[nH]c3c(nnc4ccccc43)c2=O)cc1` [Example 220]: the 50% effective concentration (EC50) is greater than 10 µM.
